{
  "source": "patent US12583841B2",
  "about": "“Tetrahydropyrrolocyclic compound and application thereof” (Breakthrough Pharmaceuticals Inc., priority 2021, dated 2026)",
  "key": {"[1]": {"target": "T1, OX1R (Homo sapiens, UniProt O43613)", "T1 construct": "expressed in transfected cells", "T1 sequence (O43613 1-425)": "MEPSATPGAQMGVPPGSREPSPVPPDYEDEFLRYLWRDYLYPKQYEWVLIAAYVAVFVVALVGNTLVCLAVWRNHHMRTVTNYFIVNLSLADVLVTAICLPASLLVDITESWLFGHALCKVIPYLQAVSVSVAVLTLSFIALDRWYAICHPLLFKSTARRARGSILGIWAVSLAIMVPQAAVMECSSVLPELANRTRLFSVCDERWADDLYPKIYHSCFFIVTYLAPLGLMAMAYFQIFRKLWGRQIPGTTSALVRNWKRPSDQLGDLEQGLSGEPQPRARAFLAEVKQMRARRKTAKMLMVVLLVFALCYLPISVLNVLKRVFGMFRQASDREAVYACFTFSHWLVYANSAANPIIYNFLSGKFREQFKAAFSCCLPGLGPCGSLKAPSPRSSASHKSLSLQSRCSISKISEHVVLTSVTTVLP", "assay": "FLIPR intracellular calcium antagonism test, HEK293-OX1R cells", "format": "cell-based", "details": "Orexin A at EC70, read-out: hOXIR IC50", "protocol": "The change of intracellular calcium signal was detected by FLIPR, and the antagonism of the compounds on OX1R and OX2R receptors was evaluated by using IC50 value of the compounds as an index.\n• Cell lines: Transfected HEK293-OX1R and HEK293-OX2R stable cell lines • HEK293-OX1R cell culture medium (DMEM, Invitrogen #11960-044, 10% serum Gibco #10099141, L-Glutamine 1×, Gibco #25030, sodium pyruvate 1×, Gibco #11360, Geneticin 300 μg/mL, Gibco #10131) • HEK293-OX2R cell culture medium (DMEM, Invitrogen #11960-044, 10% serum Gibco #10099141, L-Glutamine 1×, Gibco #25030, sodium pyruvate 1×, Gibco #11360, Geneticin 300 μg/mL, Gibco #10131, Blasticin 2 μg/mL, Invitrogen #R21001)\nExperimental Steps and Methods: • a) Cell seeding (HEK293-OX1R and HEK293-OX2R cells) • 1) preheating the culture medium, trypsin and DPBS under water bath at 37° C.; pipetting and removing the medium of cell culture and washing same with 10 mL of DPBS; • 2) adding the preheated trypsin to a culture flask, rotating the culture flask so that the trypsin evenly covered the culture flask, and putting the culture flask in a 37° C., 5% CO2 incubator for digestion for 1-2 min; • 3) suspending the cells with 10-15 mL of medium for each T150 and centrifuging at 800 rpm for 5 min; resuspending the cells with 10 mL of medium, pipetting 1 mL of the cell suspension and counting with Vi-cell; • 4) diluting OX1R cells with medium to 5×10^5 cells/mL, and diluting OX2R cells with medium to 4×10^5 cells/mL, and adding the diluted cells to 384 plate (Greiner.781946) with a multi-channel pipette (50 μL/well, 25000 cells/well for OX1R cells, 20000 cells/well for OX2R cells); placing the cell plate in a 37° C., 5% CO2 incubator overnight. • b) Compound loading: • 1) diluting the compound to 20 mM with DMSO, 3-fold dilution, 8 gradients, duplicate wells, and adding same to a compound plate with an Echo liquid handler; then adding 20 μL of buffer to maintain the final concentration of DMSO of 0.1%. • c) FLIPR experiment: • 1) washing off the cell culture medium in the 384 plate with a vacuum pump, adding […] Direct fluorescent dye, incubating in 37° C., 5% CO2 incubator for 1 h, and balancing at room temperature for another 10 min. • 2) EC50 test: manually diluting Orexin A on ice, 3-fold dilution, 8 gradients, duplicate wells; preparing a DMSO plate and keep the DMSO concentration to be 0.5%; putting the cell plate, OrexinA plate, and DMSO plate in FLIPR respectively, and reading the fluorescence value. • 3) calculating the EC70 value based on the EC50 value of Orexin A; preparing a 5×EC70 solution, adding same to 384 compound plate with a multi-channel pipette, and storing on ice; • 4) putting the compound plate, 5×EC70 plate, cell plate, and FLIPR tip in sequence in FLIPR, running the program, and reading the fluorescence value. • d) Data analyzing: using Prism5.0 to analyze the data, and calculating the IC50 value of the compound."}, "[2]": {"tested_on": "SD rats", "assay": "Effect on sleep in SD rats by electroencephalogram/electromyography telemetry", "format": "in vivo", "details": "SD rat EEG, Mean±SEM; for Sleep latency: blank vehicle 32 ± 3.1; for NREM sleep time within 7 h after administration: blank vehicle 102 ± 18; for Total awake time within 7 h after administration: blank vehicle 303 ± 20", "protocol": "Test purpose: to evaluate the effect of test substance on sleep in SD rats by electroencephalogram/electromyography telemetry (EEG).\nTest scheme: 36 male SD rats aged 5-6 weeks needed an adaptation period of 5-15 days after arriving at the facility, during which the experimental animals were placed in an alternating light and dark environment for 12 h for adaptation (light on: 19:00; light off: 07:00) to adjust the rhythm time, and the health of the animals was monitored every day. Animals needed to be surgically implanted with electroencephalogram electrode and electromyography electrode for later telemetry data collection. On the day of the operation experiment, the animals were anesthetized with Zoletil (i.p., 20 mg/kg) combined with xylazine (i.p., 8 mg/kg). After anesthesia, the animals were fixed by brain stereotaxic apparatus. After the head has hair clipped and was disinfected, the skin of the head was cut, and the four corners were clamped with hemostats to fully expose the skull. The periosteum was peeled off and wiped with dry absorbent cotton until the surface was clean. A hole was drilled according to the type of implanter, and an electrode was implanted and in contact with the dura mater. The electrode was fixed on the skull with dental cement. At the same time, the cement dripping on the tissue and skin was cleaned up. The 2 electromyography electrodes were respectively inserted into the neck muscles in parallel, and the two ends were fixed with sutures to prevent their ends from touching each other. The implanter was then placed under the skin, and the surgical wound was sutured and sterilized. After the operation, the rats were carefully placed in a clean recovery cage, lying on their sides to ensure a smooth airway. The rats were raised in a single cage and placed in a shielded recovery room, in which the light and dark automatically alternated for 12 h (light on: 19:00, light off: 07:00), the temperature was 20-26° C., and the relative humidity was 40-70%. After the operation, the animals were given nursing care for 3 days. The surgical incision was treated with cephradine powder locally, gentamicin at 4-8 mg/kg was subcutaneously administered, and meloxicam at 0.1 mL/rat was injected subcutaneously for 3 consecutive days. The experiment was carried out after 7-10 days of recovery and the animals were randomly divided into groups according to their weight the day before the experiment.\nOn the day of the experiment, the basic electroencephalogram and electromyography were recorded first, and then the administration began. During and after the administration, the electroencephalogram and electromyography were recorded continuously until 24 h after the administration. Raw data were collected by DSI system Ponemah software and analyzed by NeuroScore software. The experimental data were represented by the mean±standard error (Mean±SEM), and statistical analysis was performed using the one-way variance method. Compared with the blank vehicle group, P<0.05 indicated a significant difference, and represented as *; P<0.01 indicated a very significant difference, and represented as **; P<0.001 indicated an extremely significant difference, and represented as ***."}},
  "note": "pIC50: −log10 of the molar value. Marks after values point to notes of the source that are not given here.",
  "data": [
    {"molecule": "COc1ccc(-n2nccn2)c(C(=O)N2C(c3nc4ccc(OC)cc4[nH]3)CC3CC32)c1", "note": "(stereo not shown) [Compound 8]", "values": [
      {"measurement": "pIC50", "setting": "[1]", "result": 5.75},
      {"measurement": "Sleep latency", "setting": "[2]; 5 mg/kg", "result": "27 ± 8.1", "unit": "min"},
      {"measurement": "NREM sleep time within 7 h after administration", "setting": "[2]; 5 mg/kg", "result": "129 ± 17", "unit": "min"},
      {"measurement": "Total awake time within 7 h after administration", "setting": "[2]; 5 mg/kg", "result": "274 ± 19", "unit": "min"},
      {"measurement": "Sleep latency", "setting": "[2]; 10 mg/kg", "result": "15 ± 2.9** min"},
      {"measurement": "NREM sleep time within 7 h after administration", "setting": "[2]; 10 mg/kg", "result": "144 ± 16", "unit": "min"},
      {"measurement": "Total awake time within 7 h after administration", "setting": "[2]; 10 mg/kg", "result": "250 ± 21", "unit": "min"},
      {"measurement": "Sleep latency", "setting": "[2]; 30 mg/kg", "result": "7 ± 1.3*** min"},
      {"measurement": "NREM sleep time within 7 h after administration", "setting": "[2]; 30 mg/kg", "result": "171 ± 11** min"},
      {"measurement": "Total awake time within 7 h after administration", "setting": "[2]; 30 mg/kg", "result": "228 ± 12* min"}
    ]}
  ]
}
